Tests used:
[1] = tested on: NMDA-induced brain lesion in C57BL/6 mice; assay: NMDA-induced brain lesion after ICV pretreatment, wildtype mice; type: in vivo; conditions: for brain lesion volume (NMDA-induced): lesion at 48 h, vs NMDA-lesion and vehicle-NMDA groups
Experimental: (§1) Following protocols approved by the Institutional Animal Care and Use Committee of Johns Hopkins University, adult male C57BL/6 mice (Charles River, Wilmington, Mass.) and EP1^−/−, weighing 20-25 g were used in this study.
Weight and rectal temperature of each mouse was recorded before the surgical procedure. The mouse was subjected to intracerebroventricular (ICV) injection of vehicle or freshly prepared compound A or compound B followed by unilateral intrastriatal injection of NMDA, prepared in phosphate buffer saline (pH˜7.2) (J. Neurosci. 1997, 17, 6908-6917). In brief, each mouse was anesthetized, maintained at 1.0% halothane, and mounted on a stereotaxic frame (Stoelting Co., Wood Dale, Ill.). Varying body-weight (BW) doses of compound A (0.1 nmol/kg BW, n=8; 1 nmol/kg BW, n=12; 10 nmol/kg BW, n=8) or compound B (0.1 nmol/kg BW, n=8; 1 nmol/kg BW, n=12; 10 nmol/kg BW, n=9) were injected into the right lateral ventricle (stereotaxic coordinates PA-0.5 mm, lateral-1.0 mm from bregma, and ventral-2.5 mm relative to dura) over 30 sec, with the help of 1-μL Hamilton® syringe, and the needle was left in place for an additional 2 min. Twenty minutes later, 0.3 μl of 50 mM NMDA was injected into the right striatum over 2 min and the needle was left in place for additional 5 min. The NMDA-lesion control group (n=12) received 0.3 μL NMDA, and the vehicle-NMDA control group (n=11) received 0.2 μL vehicle ICV, followed by 0.3 μL NMDA in the striatum. Sham control and vehicle control groups were treated similarly with saline. After injections, mice were placed in a thermoregulated chamber maintained at 31° C. and returned to their cages after full recovery from anesthesia. Throughout the experimental procedure, rectal temperature of mice was monitored and maintained at 37.0±0.5° C.
(§2) At 48 h […], weight and rectal temperature were recorded and brains were harvested and immediately frozen in 2-methyl butane (pre-cooled over dry ice). Brain sections were cut on a cryostat and stained with cresyl violet to estimate lesion volume. Images of the brain sections were taken and analyzed with the help of SigmaScan Pro 5.0 (Systat, Inc., Point Richmond, Calif.).
Data were analyzed using SigmaStat 2.0 (Systat), and significance level was set at p<0.05. Statistical analysis was performed by Student's t-test. All data are reported as means±s.d.

[2] = tested on: NMDA-induced toxicity in EP1−/− mice; assay: NMDA-induced brain lesion after ICV treatment, EP1−/− mice; type: in vivo; conditions: ICV treatment of EP1−/− mice, compared to the untreated EP1−/− group
Experimental: as §1
Weight and rectal temperature of each mouse was recorded before the surgical procedure. The mouse was subjected to intracerebroventricular (ICV) injection of vehicle or freshly prepared compound A or compound B followed by unilateral intrastriatal injection of NMDA, prepared in phosphate buffer saline (pH˜7.2) (J. Neurosci. 1997, 17, 6908-6917). In brief, each mouse was anesthetized, maintained at 1.0% halothane, and mounted on a stereotaxic frame (Stoelting Co., Wood Dale, Ill.). […] Throughout the experimental procedure, rectal temperature of mice was monitored and maintained at 37.0±0.5° C.
as §2, with “Brain sections were cut on a cryostat and stained with cresyl violet to estimate lesion volume.” left out
Data were analyzed using SigmaStat 2.0 (Systat), and significance level was set at p<0.05. […]

[3] = 0.1 nmol/kg BW ICV pretreatment 20 min before intrastriatal 50 mM NMDA
[4] = 1 nmol/kg BW ICV pretreatment 20 min before intrastriatal 50 mM NMDA
[5] = 10 nmol/kg BW ICV pretreatment 20 min before intrastriatal 50 mM NMDA

CCCC[C@H](C)C[C@H](O)/C=C/[C@H]1[C@H](O)CC(=O)[C@@H]1CC(=O)C1CCC(C(=O)O)CC1 (stereo partly drawn) [compound A, 4-({(1R,2R,3R)-3-hydroxy-2-[(1E,3S,5S)-3-hydroxy-5-methylnon-1-enyl]-5-oxocyclopentyl}acetyl)cyclohexanecarboxylic acid, reference compound]
brain lesion volume (NMDA-induced) [1, 3]: non-significant increases
brain lesion volume (NMDA-induced) [1, 4]: non-significant increases
brain lesion volume (NMDA-induced) [1, 5]: significant increase

CC(C)CN(c1ccc(C(F)(F)F)cc1OCc1ccc(/C=C/C(=O)O)cc1)S(=O)(=O)c1ccco1 [compound B, (2E)-3-(4-{[2-[(2-furylsulfonyl)(isobutyl)amino]-5-(trifluoromethyl)phenoxy]methyl}phenyl)acrylic acid]
brain lesion volume (NMDA-induced) [1, 3]: No significant protection
brain lesion volume (NMDA-induced) [1, 4]: significantly decreased
brain lesion volume (NMDA-induced) [1, 5]: significantly decreased
toxicity (lesion volume) of the 10 nmol/kg BW dose compared to the 1 mmol/kg BW group ([1]; 10 nmol/kg BW ICV pretreatment, NMDA-induced lesion): slight, but not significant, toxicity
lesion volume to NMDA-induced toxicity in EP1−/− mice [2]: no significant difference
